From US12661415B2, “Isoindolinone compounds and imaging agents for imaging Huntingtin protein” (CHDI Foundation, Inc., priority 2021, dated 2026)
Entries after “also recorded” stand apart in the source; their conditions may differ.

Tests used:
[1] = system: mHTT aggregates; assay: In situ autoradiography (ARG) binding, human post-mortem brain sections
From the text: In situ autoradiography (ARG) was used to investigate the pharmacological binding characteristics of a tritium-labeled Compound 1-6 (“[^3H]-Compound 1-6”) in the HD mouse model 12-month-old HOM zQ175 and human post-mortem brains from healthy and HD gene-expanded carriers (HDGECs); specificity of binding was explored by including samples from Alzheimer's disease (AD) patients, which contain other pathological aggregates (e.g., Abeta-containing plaques and phosphor-Tau-expressing tangles). Saturation binding experiments were performed in coronal brain sections; [^3H]-Compound 1-6 binding was quantified by densitometric analysis and specific binding was determined in cortex (CTX). Affinity (KD) and maximum number of binding sites (Bmax) were determined for each region of interest (ROI).
The non-fixed and non-embedded frozen brains were sectioned by using a cryostat at −18° C. Thereby, serial coronal tissue sections of 20 μm thickness were mounted on superfrost slides and dried at room temperature for approximately 90 minutes. The slides were stored at −80° C. until the different experiments were conducted, but not longer than 3 weeks. A similar procedure was conducted with fresh-frozen human post-mortem brain blocks (healthy subjects {CTRL}, Huntingon's disease {HD}, and Alzheimer's disease {AD}).
The appropriate number of slides containing the respective tissue sections were acclimated to room temperature for 30 minutes. The slides were then pre-incubated by immersion into 40 mL assay buffer for 20 minutes at room temperature. Following this pre-incubation step, one slide per animal was incubated by immersion into 30 mL of the 10 nM, 3 nM, 1 nM, 0.3 nM, 0.1 nM, 0.03 nM, 0.01 nM, or 0.003 nM Compound 1-6 solutions and one slide was incubated by immersion into 30 mL of 10 nM, 3 nM, 1 nM, 0.3 nM, 0.1 nM, 0.03 nM, 0.01 nM, or 0.003 nM [^3H]-Compound 1-6, plus 10 μM unlabeled Compound 1-6 solutions for 60 minutes at room temperature, respectively. A similar paradigm was performed with tritium-labeled Comparative Compound 3 (“[^3H]-Comparative Compound 3”) and tritium-labeled Comparative Compound 4 (“[^3H]-Comparative Compound 4”). Structures of these comparative compounds and compound 1-6 are shown below.
Afterwards, the slides were washed three times for 10 minutes with 200 mL of ice cold washing buffer at 4° C. and dipped for three seconds in ice cold distilled water to remove buffer salts. The slides were dried for three hours at 30° C. and exposed for 96 hours to Fuji BAS-TR 2015 tritium phosphor screens together with the calibrated tritium standards ART 0123C and ART 0123B. Stored radiation energy on the screen was scanned using the phosphorimager Typhoon FLA 7000.
Densitometric data analysis was performed using the MCID Analysis 7.1 software (Interfocus Imaging Ltd.). Within each brain section, regions of interest (ROI) were defined for STR, CTX, and HPC by using appropriate sample tools, and the software calculated density measures from the gray level values of all pixels within a defined ROI (Molecular dynamics counts per unit area, MDC/mm^2). Densitometric calibration related the optical densities to known concentrations of radioactivity from the calibrated tritium standards (fmol/mg tissue) and mean values were calculated for each ROI of the individual brains. Total binding (TB) and non-specific binding (NSB) of the radioligand were quantified, and specific binding (SB) was derived by subtracting NSB from TB (SB=TB−NSB) for each brain and ROI, respectively. Subsequently, the group mean±standard deviation (SD) was calculated for each ROI and experimental condition. The data were fitted to one-site binding equation using non-linear regression method in GraphPad Prism Software.

[2] = molecular target: mHTT aggregates (Mus musculus, UniProt P42859); assay: In situ autoradiography (ARG) saturation binding, HOM zQ175 HD mouse model brain sections
From the text: In situ autoradiography (ARG) was used to investigate the pharmacological binding characteristics of a tritium-labeled Compound 1-6 (“[^3H]-Compound 1-6”) in the HD mouse model 12-month-old HOM zQ175 and human post-mortem brains from healthy and HD gene-expanded carriers ([…]); specificity of binding was explored by including samples from Alzheimer's disease (AD) patients, which contain other pathological aggregates (e.g., Abeta-containing plaques and phosphor-Tau-expressing tangles). Saturation binding experiments were performed in coronal brain sections; [^3H]-Compound 1-6 binding was quantified by densitometric analysis and specific binding was determined in cortex (CTX). Affinity (KD) and maximum number of binding sites (Bmax) were determined for each region of interest (ROI). At the appropriate ages, HD and WT mice of the different strains were sacrificed by cervical dislocation, and the brains, including cerebellum, were dissected and washed in ice cold PBS. Subsequently, the brains were patted dry on paper towels and transferred into a 6-well plate filled with isopentane that was cooled to a temperature between -30° C. and -40° C. The frozen brains were stored at -80° C. until sectioning. The non-fixed and non-embedded frozen brains were sectioned by using a cryostat at -18° C. Thereby, serial coronal tissue sections of 20 μm thickness were mounted on superfrost slides and dried at room temperature for approximately 90 minutes. The slides were stored at -80° C. until the different experiments were conducted, but not longer than 3 weeks. A similar procedure was conducted with fresh-frozen human post-mortem brain blocks (healthy subjects {CTRL}, Huntingon's disease {HD}, and Alzheimer's disease {AD}). The appropriate number of slides containing the respective tissue sections were acclimated to room temperature for 30 minutes. The slides were then pre-incubated by immersion into 40 mL assay buffer for 20 minutes at room temperature. […] Within each brain section, regions of interest (ROI) were defined for STR, CTX, and HPC by using appropriate sample tools, and the software calculated density measures from the gray level values of all pixels within a defined ROI (Molecular dynamics counts per unit area, MDC/mm^2). Densitometric calibration related the optical densities to known concentrations of radioactivity from the calibrated tritium standards (fmol/mg tissue) and mean values were calculated for each ROI of the individual brains. Total binding (TB) and non-specific binding (NSB) of the radioligand were quantified, and specific binding (SB) was derived by subtracting NSB from TB (SB=TB-NSB) for each brain and ROI, respectively. Subsequently, the group mean±standard deviation (SD) was calculated for each ROI and experimental condition. […]

Sequence of mHTT aggregates (Mus musculus, UniProt P42859) (P42859 whole entry): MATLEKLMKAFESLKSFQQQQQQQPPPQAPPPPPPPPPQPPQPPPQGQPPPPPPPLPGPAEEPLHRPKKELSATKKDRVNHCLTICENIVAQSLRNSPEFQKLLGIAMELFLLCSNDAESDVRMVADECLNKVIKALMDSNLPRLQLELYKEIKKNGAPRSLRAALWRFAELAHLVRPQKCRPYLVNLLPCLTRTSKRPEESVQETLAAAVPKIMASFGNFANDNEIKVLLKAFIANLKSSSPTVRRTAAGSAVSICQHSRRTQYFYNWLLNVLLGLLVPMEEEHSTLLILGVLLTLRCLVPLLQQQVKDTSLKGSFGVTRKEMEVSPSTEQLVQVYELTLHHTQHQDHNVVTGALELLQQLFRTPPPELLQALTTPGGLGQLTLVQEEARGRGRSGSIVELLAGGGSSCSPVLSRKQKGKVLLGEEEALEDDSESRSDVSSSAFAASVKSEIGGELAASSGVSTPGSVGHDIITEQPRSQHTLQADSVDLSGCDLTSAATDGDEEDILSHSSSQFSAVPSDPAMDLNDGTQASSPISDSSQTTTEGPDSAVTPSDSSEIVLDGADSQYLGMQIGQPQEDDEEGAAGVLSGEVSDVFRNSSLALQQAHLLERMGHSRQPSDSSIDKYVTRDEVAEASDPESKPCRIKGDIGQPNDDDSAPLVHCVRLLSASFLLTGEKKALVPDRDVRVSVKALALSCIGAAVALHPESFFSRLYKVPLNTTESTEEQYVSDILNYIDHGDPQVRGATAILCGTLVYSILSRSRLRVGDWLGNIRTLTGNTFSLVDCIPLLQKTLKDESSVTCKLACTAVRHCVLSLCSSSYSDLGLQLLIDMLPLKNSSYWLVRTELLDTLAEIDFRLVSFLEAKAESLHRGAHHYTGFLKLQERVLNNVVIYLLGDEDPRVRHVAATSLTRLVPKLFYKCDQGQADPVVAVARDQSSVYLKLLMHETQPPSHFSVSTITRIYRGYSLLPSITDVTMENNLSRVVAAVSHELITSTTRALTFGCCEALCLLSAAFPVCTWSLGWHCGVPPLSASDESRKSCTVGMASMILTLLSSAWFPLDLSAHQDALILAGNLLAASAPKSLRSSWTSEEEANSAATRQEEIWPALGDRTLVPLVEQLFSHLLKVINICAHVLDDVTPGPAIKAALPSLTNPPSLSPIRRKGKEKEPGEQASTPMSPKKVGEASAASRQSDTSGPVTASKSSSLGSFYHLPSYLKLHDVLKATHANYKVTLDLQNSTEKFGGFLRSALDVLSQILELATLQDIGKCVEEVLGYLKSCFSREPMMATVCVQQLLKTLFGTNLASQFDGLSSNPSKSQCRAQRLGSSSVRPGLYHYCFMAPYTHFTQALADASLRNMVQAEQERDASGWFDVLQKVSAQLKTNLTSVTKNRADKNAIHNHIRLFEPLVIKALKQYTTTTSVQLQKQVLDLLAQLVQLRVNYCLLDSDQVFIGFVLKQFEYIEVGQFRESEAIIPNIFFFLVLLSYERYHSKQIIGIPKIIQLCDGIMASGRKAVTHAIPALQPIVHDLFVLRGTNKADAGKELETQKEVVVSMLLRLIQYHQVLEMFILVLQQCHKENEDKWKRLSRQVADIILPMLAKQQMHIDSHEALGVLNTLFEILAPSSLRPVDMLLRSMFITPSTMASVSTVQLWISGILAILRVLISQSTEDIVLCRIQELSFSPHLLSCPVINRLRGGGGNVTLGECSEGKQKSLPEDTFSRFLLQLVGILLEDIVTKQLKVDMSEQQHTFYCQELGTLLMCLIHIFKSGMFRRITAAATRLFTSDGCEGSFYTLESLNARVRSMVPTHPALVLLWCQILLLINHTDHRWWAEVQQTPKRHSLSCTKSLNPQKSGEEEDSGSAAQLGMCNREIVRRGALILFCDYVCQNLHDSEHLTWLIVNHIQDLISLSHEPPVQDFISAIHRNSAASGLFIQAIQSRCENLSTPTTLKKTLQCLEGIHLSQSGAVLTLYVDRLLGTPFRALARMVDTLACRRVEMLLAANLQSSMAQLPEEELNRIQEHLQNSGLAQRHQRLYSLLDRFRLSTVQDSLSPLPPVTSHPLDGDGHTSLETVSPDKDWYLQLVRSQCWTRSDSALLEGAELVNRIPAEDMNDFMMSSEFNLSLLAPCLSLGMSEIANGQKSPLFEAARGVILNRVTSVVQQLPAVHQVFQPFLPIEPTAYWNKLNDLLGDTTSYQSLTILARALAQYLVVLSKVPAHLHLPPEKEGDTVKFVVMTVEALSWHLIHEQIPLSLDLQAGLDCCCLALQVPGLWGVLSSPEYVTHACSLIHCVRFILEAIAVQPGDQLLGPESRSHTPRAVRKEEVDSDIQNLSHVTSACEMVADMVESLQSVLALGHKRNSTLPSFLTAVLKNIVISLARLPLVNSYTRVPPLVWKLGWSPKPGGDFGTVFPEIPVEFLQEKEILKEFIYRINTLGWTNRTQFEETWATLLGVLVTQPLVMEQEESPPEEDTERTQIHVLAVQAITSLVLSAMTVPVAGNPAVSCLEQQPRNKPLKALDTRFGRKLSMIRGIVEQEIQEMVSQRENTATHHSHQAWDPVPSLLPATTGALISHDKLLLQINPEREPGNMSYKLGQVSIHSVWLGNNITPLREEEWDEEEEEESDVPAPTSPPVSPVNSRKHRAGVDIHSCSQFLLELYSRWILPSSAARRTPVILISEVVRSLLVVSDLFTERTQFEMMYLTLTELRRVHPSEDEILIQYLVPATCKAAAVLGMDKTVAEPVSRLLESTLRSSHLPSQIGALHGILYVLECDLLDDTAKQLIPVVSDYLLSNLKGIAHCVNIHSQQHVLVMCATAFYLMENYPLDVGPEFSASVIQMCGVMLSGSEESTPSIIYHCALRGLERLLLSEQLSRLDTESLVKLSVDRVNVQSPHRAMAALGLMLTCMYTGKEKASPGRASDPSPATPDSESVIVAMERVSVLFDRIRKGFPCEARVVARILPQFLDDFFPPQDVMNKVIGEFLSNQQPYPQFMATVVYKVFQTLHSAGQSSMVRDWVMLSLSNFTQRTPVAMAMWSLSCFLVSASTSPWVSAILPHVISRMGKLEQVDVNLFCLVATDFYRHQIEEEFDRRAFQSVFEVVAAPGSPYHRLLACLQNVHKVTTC

COc1ccc(COc2ccc3c(c2)CN(c2ccc(=O)n(C)n2)C3=O)nc1 [[^3H]-Compound 1-6]
specific binding, AD patients ([1]; cortex brain sections from AD patients): 0.1±0.0 fmol/mg tissue
specific binding, HD donors ([1]; frontal cortical sections from HD donors): 0.8±0.2 fmol/mg tissue
specific binding, CTRL tissue ([1]; frontal cortical sections, healthy subjects (CTRL)): 0.0±0.0 fmol/mg tissue
specific HD binding at 0.3 nM radioligand ([1]; human HD brain sections, 0.3 nM radioligand): significant specific HD binding was detectable; also recorded: binds selectively to human HD brain sections
binding to healthy control or Alzheimer's disease brain sections ([1]; human post-mortem brain sections): little to no binding
binding density to juvenile HD brain ([1]; juvenile HD sample (one case) vs adult-onset HD brains): highest binding density
white matter binding ([1]; post-mortem human brain, white matter): ≤ 0.5 fmol/mg tissue
binding to WT brain sections ([2]; WT mouse brain sections, only detectable above LLoQ (0.5 fmol/mg tissue) at 3 nM and 10 nM): minor
Bmax (concentration of specific binding sites) ([2]; cortex, 12-month-old HOM zQ175): 448.6 fmol/mg tissue
Bmax ([2]; cortex, 12-month-old HOM zQ175, tritium-labeled radioligand): 448 fmol/mg
